{"source": "patent US4430335A", "about": "(priority 1983, dated 1984)", "tested_on": "mice", "parameters": "species or system mice (male, CD-1)", "details": "mouse, in vivo"}
{"smiles": "CCC(=O)O[C@](Cc1ccccc1)(c1ccccc1)[C@H](C)CN(C)C", "note": "[propoxyphine]", "values": [{"measurement": "Dose Subcutaneously (sc) [*= ED50 ], 50 % Inhibition of phenylquinone writhing", "value": 3.4}]}
